Assays:
5HT2A = 5HT2A (Homo sapiens, UniProt P28223); conditions: 5HT2A Antagonist; cited from earlier work
D2 = D2 (Homo sapiens, UniProt P14416); conditions: D2 Antag; cited from earlier work
[1] = system: hippocampal subgranular neurogenic niche; assay: Short-term (4 days) in vivo activation of the hippocampal subgranular neurogenic niche (BrdU); set-up: species or system C57BL/6 mice; conditions: antagonist 0.2 μg/animal with DMT 0.1 μg/animal
Description: Adult male C57BL/6 mice (obtained from Charles River Labs) were injected in the lateral ventricle (coordinates: from bregma, posterior −1 mm, lateral +1.3 mm, ventral +2 mm, according to the atlas of Paxinos and Franklin (Paxinos G, Franklin KBJ. The Mouse Brain in Stereotaxic Coordinates. 4. San Diego: Academic Press; 2012)), using a stereotaxic apparatus (Kopf Instruments, CA) with DMT (0.1 μg/animal), alone or in combination with the selective Sigma-1 BD1063 (BD, 0.2 μg/animal, Sigma, catalog number SML0276), the mixed 5-HT2A/1A receptor antagonist methiothepin (Met, 0.2 μg/animal, Sigma catalog number M149), or the selective 5-HT1A receptor antagonist WAY100635 (WAY, 0.2 μg/animal, ABCAM catalog number ab120550). Prior to the injection, mice were anesthetized by intraperitoneal injection of ketamine (60 mg/kg) and medetomidine (0.125 mg/kg). […] The boundaries of these nervous system regions were determined with reference to internal anatomic landmarks (Paxinos G, Franklin KBJ. The Mouse Brain in Stereotaxic Coordinates. 4. San Diego: Academic Press; 2012). For DG area selection, images were analyzed using computer-assisted image analysis software (Soft Imaging System Corporation, Lakewood, Colo., http://www.soft-imaging.com). Positive cells, which intersected the uppermost focal plane (exclusion plane) and the lateral exclusion boundaries of the counting frames, were not counted. […]

[2] = system: subgranular zone of the hippocampus; assay: Long-term (21 days) in vivo neurogenesis in the subgranular zone of the hippocampus (BrdU/NeuN, BrdU/DCX); set-up: species or system C57BL/6 mice; conditions: antagonist 0.2 μg/animal with DMT 0.1 μg/animal, every other day for 3 weeks
Description: Adult male C57BL/6 mice (obtained from Charles River Labs, Barcelona, Spain) were injected every other day for 3 weeks with DMT (0.1 μg/animal), alone or in combination with the selective Sigma-1 BD1063 antagonist (BD, 0.2 μg/animal, Sigma, Catalog number SML0276), the mixed 5-HT2A/1A receptor antagonist methiothepin (Met, 0.2 μg/animal, Sigma, Catalog number M149), or the selective 5-HT1A receptor antagonist WAY100635 (WAY, 0.2 μg/animal, ABCAM catalog number ab120550). On day 1 of treatment, animals were intraperitoneally injected with the proliferation marker 5-bromo-2-deoxyuridine (BrdU, 50 mg/kg, Sigma, Catalog number B5002) and sacrificed on day 21. Following anesthesia, the animals were perfused transcardially with 4% paraformaldehyde, and the brains obtained and post-fixed in the same solution at 4-8° C. overnight. They were subsequently cryoprotected, frozen, and finally cut into 30 μm coronal sections in a cryostat. Free-floating sections were immunostained using immunofluorescence analysis. For BrdU detection, samples were first incubated with 2 M HCl for 30 minutes at 37° C. before blocking 1 hour in PBS containing 5% normal serum, 0.1 M lysine, and 0.1% Triton X-100. Sections were then incubated with anti-BrdU mouse monoclonal antibody (DAKO, Barcelona, Spain, Catalog number M0744) combined with a neuronal marker, anti-neuN rabbit antibody (Abcam, Cambridge, UK. Catalog number ABN78) or an anti-double courtin (DCX) goat antibody (Santa Cruz Biotech. USA) at 4° C. overnight, washed three times and incubated with Alexa Fluor-488 goat anti-mouse and Alexa 647-goat anti-rabbit or -horse anti-goat secondary antibodies (Molecular Probes, Madrid, Spain), respectively, for 1 hour at room temperature. After rinses, sections were mounted with Vectashield.

Chain of D2 (P14416 whole entry): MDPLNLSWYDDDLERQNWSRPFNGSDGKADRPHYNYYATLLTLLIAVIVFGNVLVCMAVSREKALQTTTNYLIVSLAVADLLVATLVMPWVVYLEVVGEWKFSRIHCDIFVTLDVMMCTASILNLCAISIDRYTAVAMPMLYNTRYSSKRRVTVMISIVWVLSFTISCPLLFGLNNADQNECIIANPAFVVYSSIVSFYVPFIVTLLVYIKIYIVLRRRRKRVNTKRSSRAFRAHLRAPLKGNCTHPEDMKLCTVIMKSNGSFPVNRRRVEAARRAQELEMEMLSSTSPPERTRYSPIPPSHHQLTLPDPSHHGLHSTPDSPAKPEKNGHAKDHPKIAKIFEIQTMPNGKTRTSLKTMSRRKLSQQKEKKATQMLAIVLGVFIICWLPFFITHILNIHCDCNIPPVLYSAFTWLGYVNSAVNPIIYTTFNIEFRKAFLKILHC
Chain of 5HT2A (P28223 whole entry): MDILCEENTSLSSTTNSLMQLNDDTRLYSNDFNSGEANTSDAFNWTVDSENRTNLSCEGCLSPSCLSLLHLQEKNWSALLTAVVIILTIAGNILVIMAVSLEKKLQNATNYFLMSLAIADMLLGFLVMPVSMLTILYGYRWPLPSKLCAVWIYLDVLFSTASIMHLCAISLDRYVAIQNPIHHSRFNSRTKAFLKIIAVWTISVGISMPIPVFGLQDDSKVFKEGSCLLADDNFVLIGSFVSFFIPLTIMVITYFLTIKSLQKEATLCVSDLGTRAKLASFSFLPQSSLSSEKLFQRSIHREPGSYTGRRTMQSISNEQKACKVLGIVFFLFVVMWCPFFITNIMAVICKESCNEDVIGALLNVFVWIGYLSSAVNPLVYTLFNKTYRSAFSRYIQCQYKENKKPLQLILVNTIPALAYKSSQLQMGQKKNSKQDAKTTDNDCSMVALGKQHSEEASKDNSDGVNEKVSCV

SMILES	Ki (5HT2A)	Ki (D2)	blockade of DMT stimulatory effects in vivo [1]	blockade of the DMT neurogenic effect in vivo [2]
CCNC(=O)N1CCN(CCCC(c2ccc(F)cc2)c2ccc(F)cc2)CC1 [Amperozide]	0.012 µM	0.14 µM	–	–
CN1CCN(CCc2ccc(Cl)c(Cl)c2)CC1 [BD1063]	–	–	completely blocked	blocked

Reference: patent US11723894B2, “Combination product for the treatment of neurological and/or psychiatric disorders” (Consejo Superior de Investigaciones Cientificas (CSIC), priority 2017, dated 2023)
